Source: patent US5053338A, “Kinetic resolution of pyridazinones using lipase” (Glaxo Inc., priority 1990, dated 1991)
pIC50: −log10 of the molar value.

Legend:
[1] = system: rat aorta; conditions: R. F. Kauffman et al., J. Pharmacol. Exp. Ther. 242:864-872 (1987); cited from earlier work
[2] = system: rat aorta; assay: Rat Aorta Protocol (relaxation of phenylephrine-contracted rat aorta rings); type: cell-based; conditions: phenylephrine 1×10^-7 M, methylene blue and propranolol present, endothelium removed, read-out: IC50 (concentration producing a relaxation equivalent to 50% of the maximal relaxation induced by nitroprusside)
Procedure: Such vasorelaxation appears to be related to inhibition of the phosphodiesterase (PDE) isozyme related to the cardiac sarcoplasmic reticulum. Thus, relaxation of rat aorta can be used as a screen to eliminate compounds which are not PDE inhibitors prior to testing for actual inotropic activity.
Rings of rat aorta (endothelium removed) were prepared for the measurement of isometric force in isolated tissue organ chambers essentially as previously described by T. J. Rimele et al in the Journal of Pharmacol. Exp. Ther. 245:102-111 (1988). The experimental portion of the protocol began with the addition of methylene blue (1×10^-5 M) and propranolol (1×10^-6 M) to each organ chamber to inhibit basal cGMP accumulation due to soluble guanylate cyclase and beta-adrenoceptors.Phenylephrine (1×10^-7 M) was then added and the rings were allowed to obtain a stable contractile response after which time, the test compound was added in a cumulative fashion. The relaxation induced by each concentration of the test compound was expressed as a percentage of the maximal relaxation produced by nitroprusside (1×10^-4 M) The results were graphically represented as a plot of the percentage relaxation vs. the negative log of the molar concentration of the test compound. […]

[3] = system: anesthetized dogs (left ventricular dP/dt); assay: Anesthetized Dog: inotropic effect (increase in baseline dP/dt); type: in vivo; conditions: infusion of atenolol
Procedure: Inotropic effects were evaluated in barbiturate-anesthetized dogs by differentiating left intraventricular pressure. This procedure was carried out essentially as described by M. K. Grizzel et al in the FASEB Journal, Vol. 3, page 1039, abstract 4728 (1989). […] Cardiac output was determined via thermodilution with a Spectramed computer (Starcom, Oxnard, Calif.) and a 5F Swan Ganz catheter which was inserted into the right jugular vein and positioned in the pulmonary artery. […] A lead II electrocardiogram was measured using subcutaneous electrodes. […] Rectal temperature was monitored and maintained at 37°-38° C. with a heating pad (Baxter Health Care model K20, McGaw Park, Ill.). All variables were recorded using a Gould 3800S physiograph.
Isoproterenol ([…]) was injected i.v. into the cephalic vein at 10 min intervals except for when the test drug infusion was begun. […] Inhibition of the isoproterenol responses on contractibility (dP/dt), heart rate and diastolic blood pressure were determined at each dose of test compound. The inotropic effect of each compound was determined by comparing the level of dP/dt at the end of each 10 min period to that of the level of dP/dt just prior to the infusion of test compound. […]

SMILES	relaxation of rat aorta [1]	pIC50 [2]	effect of atenolol on the inotropic effects [3]
CSc1ccc(C(=O)c2[nH]c(=O)[nH]c2C)cc1 [enoximone]	marked relaxation	–	–
O=C(COc1ccc(C2=NNC(=O)CC2)cc1Cl)NCCNC[C@H](O)COc1ccccc1 [Example 19, 6-{4-[N-[2-[3-phenoxy-2-hydroxypropylamino]ethyl]carbamoylmethoxy]-3-chlorophenyl}-4,5-dihydro-3(2H)-pyridazinone]	–	6.47	not blocked by atenolol
Cc1[nH]c(=O)c(C#N)cc1-c1ccncc1 [milrinone]	marked relaxation	–	–
